Experimental data taken from PubChem BioAssay (NCI).
Several values for one entry are separate records, joined by “and”; a condition that tells them apart may be missing. Identical values can stand only once.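 Five concentrations, 48 hours, 96-well plates. GI50 = concentration required for 50% inhibition of growth. TGI: concentration producing complete growth inhibition.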

What was measured:
[1] = system: SN12K1 renal; assay: NCI tumour cell line growth inhibition, 48 h
[2] = system: P388/ADR leukemia; assay: NCI tumour cell line growth inhibition, 48 h

| SMILES | GI50 [1] [nM] | TGI [1] | TGI [2] [nM] |
| --- | --- | --- | --- |
| COc1cc2c(c(OC)c1OC)-c1ccc(OC)c(=O)cc1[C@@H](NC(C)=O)CC2 | 2.98 | 6.25 nM and < 62.5 nM | 55900 |
| O=C1NC2C(=CC(O)C(O)C2O)c2cc3c(cc21)OCO3 (stereo not given) |  | 1800 nM | 714 |
